According to patent publication US20020034725A1, “SENSITIZATION OF CELLS TO RADIATION AND AND CHEMOTHERAPY” (priority 1996, published 2002):

Experiments:
3.7 and 5R cells = test: Cell growth after FTI-277 treatment; type: cell-based, rat
Protocol: FIG. 15A is a graph depicting growth of primary REF cells (circles) and 3.7 cells (squares) after FTI-277 treatment. Two×10^5 cells were plated in medium containing 2.5 μM (3.7 cells) or 5 μM (REF cells) of FTI-277. […] Cells were harvested from replicate dishes at one day intervals and counted using a hemocytometer to determine the total cell number in each culture. Open symbols: DMSO (drug carrier) treated cells; closed symbols: FTI-277 treated cells.
FIG. 15B is a graph depicting growth of MR4 cells (circles) and 5R cells (squares) following treatment with FTI-277 treatment. Three×10^5 cells were plated in medium containing 5 μM FTI-277. Cells were harvested from replicate dishes at one day intervals and counted using a hemocytometer to determine the total cell number in each culture. Open symbols: DMSO (drug carrier) treated cells; closed symbols: 5 μM FTI-277 treated cells.

[1] = tested on: T24 bladder carcinoma cells; test: Colony formation / surviving fraction at 2 Gray in T24 cells; type: cell-based, human
Protocol: FIG. 16B is a graph depicting colony formation following FTI-277 treatment and irradiation of human T24 bladder carcinoma cells. Cells were treated for 24 hours with 5 μM of FTI-277 and were harvested and plated at the indicated cell density in medium containing DMSO (left panel) or 5 μM FTI-277 (right panel) and were immediately irradiated. Cultures were re-fed after 24 hours with medium that contained no inhibitor. […] The cells were allowed to grow for two weeks prior to scoring for colony formation. Open squares: unirradiated cells; closed circles: 2 Gray irradiated cells. The surviving fraction of cells was calculated as described in the description of FIG. 14B. The correlation coefficient for linear regression analysis (r^2) was greater than 0.95 in all cases.
In view of the fact that accumulation of unfarnesylated H-ras in T24 cells takes longer, these cells were pretreated for 24 hours prior to irradiation and subsequent assay for clonogenic survival. An additional consideration raised by pretreatment of cells is that FTI-277 and other farnesyltransferase inhibitors can affect the farnesylation of rho proteins involved in cell morphology and thus alter cell adherence. The pretreatment of T24 cells with FTI-277 reduced the ability of these cells to form discrete colonies after replating, resulting in the formation of secondary satellite colonies. […]

K-ras = test: Western blot of K-ras prenylation in SW480 and Panc-1 cells; type: cell-based, human; conditions: SW480 cells, 48 hours
Protocol: FIG. 17A is an image of a Western blot depicting inhibition by FTI-277 of K-ras prenylation in human SW480 colon carcinoma cells. SW480 cells were treated with the indicated concentrations of FTI-277 (μM) for 48 hours. Samples were harvested and cell lysates were analyzed by Western blotting using either a H-ras monoclonal antibody (top) or a K-ras monoclonal antibody (bottom). Arrows indicate unfarnesylated ras bands.
FIG. 18A is an image of a Western blot depicting the specific inhibition of K-ras prenylation by combined FTI-277 and GGTI-298 treatment. Log phase cultures of human pancreatic carcinoma cells (Panc-1) and colon carcinoma cells (SW480) were treated with 5 μM FTI and 8 μM GGTI 298 for 48 hours. Cell samples were then harvested and cell lysates were prepared for Western blot analysis using monoclonal antibodies to K-ras and nuclear lamin B. The electrophoretic mobility of the K-ras mutant in SW480 is slower than that of the mutant K-ras in Panc-1 cells.

H-ras = test: Western blot of ras farnesylation in mouse prostate tumor cells; type: cell-based; conditions: primary tumor cells or metastatic clone, 24 hours
Protocol: FIG. 13A is an image of a Western blot depicting the effects of FTI-277 on ras farnesylation in cultured cells derived from a primary and a metastatic tumor following 24 hours of treatment with the inhibitor at the indicated concentrations. Mouse prostate tumor cells transformed with H-ras^v12 and myc oncogenes were treated with the indicated doses (μM) of FTI-277. After 24 hours, samples were harvested for Western blot analysis using an anti-H-ras antibody. The upper band (arrow) corresponds to unfarnesylated H-ras. C denotes controls.
Cells were lysed in culture dishes with 1 x reducing Laemmli sample buffer. Samples were boiled, sheared and clarified by centrifugation at 14,000 rpm in a microfuge before storage at −20° C. Samples containing equal amounts of protein were separated on a 12% SDS polyacrylamide gel and electrophoretically transferred to nitrocellulose membranes. Membranes were blocked for 1-2 hours in PBS containing 0.1% Tween-20 and 5% powdered milk before antibody addition. Membranes were probed with monoclonal pan-ras antibody AB-4 (Oncogene Science, Uniondale, N.Y.) at a concentration of 0.5 μg/ml, or with monoclonal H-ras antibody LA069 (1:5000 dilution; Quality Biotech, Camden, N.J.). Detection of protein was accomplished using the ECL chemiluminescence kit (Amersham, Arlington Heights, Ill.). […]

For `COC(=O)[C@H](CCSC)NC(=O)c1ccc(NC[C@@H](N)CS)cc1-c1ccccc1` [FTI-277], the cell growth (3.7 and 5R cells; 3.7 cells, conditions of radiation survival experiments) was “some inhibition of cell growth”, the “increase in cell number” value (3.7 and 5R cells; 3.7 cells, day 4 after drug treatment) was “fifty-fold increase in cell number” and the cell growth (3.7 and 5R cells; 5R cells, 5 μM) was “more resistant to growth inhibition”. The “surviving fraction at 2 Gray irradiation” value ([1]; 5 μM, 24 hours pretreatment) was 0.35, the “colony formation without irradiation” value ([1]; FTI-277 treatment alone) was “did not significantly reduce the fraction of wells giving rise to colonies” and the “concentration at which altered migration of K-ras became evident” value (K-ras) was 30 µM. For the same molecule, the H-ras farnesylation (H-ras) was “dose-dependent reduction of the farnesylated form”.
